11 compounds from ChEMBL document CHEMBL1201862, “PubChem BioAssay data set” (2004) can be followed below.

Some test systems named below: SNB-75; TK-10; KM12; HOP-62; UACC-257; SNB-19; 786-0; PC-3; OVCAR-4; HCT-15; LOX IMVI; MDA-N; ACHN; OVCAR-3; SK-MEL-5; BT-549; A549; Malme-3M; NCI-H226; A498.
Common to all, as to assay: NCI-60 cell line screen, 48 h

Values joined by “and” are separate entries in the source; they are usually repeats but may differ in a detail not shown here. Equal entries are not always repeated.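 All cell lines were grown in 96-well plates and treated with compound for 48 hours. GI50 marks 50% less growth.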 Active and inactive are the calls of the source. Rule as the data show it: active = GI50 up to about 1.1 µM and inactive = higher.

As to `COC(=O)[C@@H]1C[C@H]2[C@H](c3ccccc3Br)[C@@H](OC(C)=O)[C@@H](OCc3ccccc3)ON2O1`, the GI50 with SNB-75, in the test on TK-10, in the test with KM12, with HOP-62, with UACC-257 and in the test with SNB-19 was > 100 µM (inactive) in each case. In addition, the GI50 was > 100 µM (inactive) in the test on 786-0; > 100 µM (inactive) in the test on PC-3; > 100 µM (inactive) in the test with OVCAR-4; > 100 µM in the test on HCT-15; > 100 µM (inactive) in the test with LOX IMVI; > 100 µM (inactive) in the test on MDA-N. Further, the GI50 with ACHN was > 100 µM (inactive); in the test on OVCAR-3, 19.6 µM (inactive); in the test with SK-MEL-5 it was > 100 µM (inactive); in the test on BT-549 it was > 100 µM (inactive); with A549, > 100 µM (inactive).

In the case of `O=C1NC(N2CCCCC2)=N/C1=C\c1cccs1`, the GI50 with TK-10, in the test with KM12, in the test with HOP-62, with Malme-3M, with UACC-257 and in the test on SNB-19 was > 100 µM (inactive) throughout. Besides, the GI50 was > 100 µM (inactive) in the test on 786-0; > 100 µM (inactive) in the test on PC-3; > 100 µM (inactive) in the test with OVCAR-4; > 100 µM (inactive) in the test with NCI-H226; > 100 µM with HCT-15; > 100 µM (inactive) in the test with LOX IMVI. Besides, the GI50 with MDA-N, in the test with ACHN, in the test on OVCAR-3, in the test with BT-549 and in the test on A549 was > 100 µM (inactive) throughout.

Regarding `Cc1cc(C)nc(NS(=O)(=O)c2ccc(NN=c3c4ccccc4n(C)c4ccccc34)cc2)n1`, the GI50 in the test on SNB-75 is 12.7 µM (inactive); with TK-10, 28.6 µM (inactive); with KM12 it was 52.7 µM (inactive); in the test with HOP-62, 60.5 µM (inactive); in the test on Malme-3M, 35.6 µM (inactive); in the test on UACC-257, 39.3 µM (inactive). For the same compound, the GI50 with SNB-19 is 42.3 µM (inactive); in the test with 786-0, 30.2 µM (inactive); with PC-3, 22 µM (inactive); in the test with OVCAR-4, 23.6 µM (inactive); with NCI-H226, 40.2 µM (inactive); in the test on HCT-15, 32.7 µM. Also, the GI50 in the test with LOX IMVI is 23.7 µM (inactive); with MDA-N, 22.2 µM (inactive); in the test on ACHN it was 21.6 µM (inactive); with OVCAR-3, 30.2 µM (inactive); in the test with SK-MEL-5, 17.2 µM (inactive); in the test on BT-549, 8.95 µM (inactive). The GI50 in the test with A549 is 35.4 µM (inactive).

On to `COc1ccc(-c2cc(-c3ccco3)c(C#N)c(=S)n2C2OC(COC(C)=O)C(OC(C)=O)C(OC(C)=O)C2OC(C)=O)cc1` (stereo not given), for which the GI50 was 5.85 µM (inactive) in the test with SNB-75; 30.2 µM (inactive) in the test on TK-10; 11.9 µM (inactive) in the test on KM12; 2.61 µM (inactive) in the test on HOP-62; 5.18 µM (inactive) with Malme-3M; 5.66 µM (inactive) in the test with SNB-19. Further, the GI50 is 3.28 µM (inactive) with 786-0; 4.07 µM (inactive) in the test with PC-3; 2.54 µM (inactive) in the test with OVCAR-4; 5.7 µM (inactive) in the test on NCI-H226; 31.6 µM in the test with HCT-15; 3.64 µM (inactive) with LOX IMVI. Besides, the GI50 is 5.5 µM (inactive) in the test on MDA-N; 6.82 µM (inactive) with ACHN; 7.13 µM (inactive) in the test on OVCAR-3; 10.6 µM (inactive) in the test with SK-MEL-5; 2.82 µM (inactive) in the test with BT-549; 5.9 µM (inactive) with A549.

On to `CCc1n[nH]c(=O)n1/N=C/c1ccccc1O`, for which the GI50 in the test on SNB-75, with TK-10, in the test with KM12, with HOP-62, in the test on UACC-257 and with SNB-19 was > 100 µM (inactive) each time. Also, the GI50 was > 100 µM (inactive) in the test with 786-0; > 100 µM (inactive) in the test on PC-3; > 100 µM (inactive) in the test on OVCAR-4; > 100 µM with HCT-15; > 100 µM (inactive) in the test on LOX IMVI; > 100 µM (inactive) in the test with MDA-N. Also, the GI50 in the test on ACHN, in the test on OVCAR-3, in the test with SK-MEL-5, with BT-549 and in the test with A549 was > 100 µM (inactive) throughout.

Regarding `CCOC(=O)CC(=O)Nc1cccc2sc3ncccc3c(=O)c12`, the GI50 is 12.9 µM (inactive) with SNB-75; 34.4 µM (inactive) with TK-10; 77.4 µM (inactive) in the test on KM12; 33 µM (inactive) in the test on HOP-62; 54.6 µM (inactive) in the test with Malme-3M; > 100 µM (inactive) in the test on UACC-257. The GI50 in the test on SNB-19 was 51.3 µM (inactive); in the test with 786-0, 35 µM (inactive); with PC-3, 5.81 µM (inactive); in the test on OVCAR-4 it was 83.2 µM (inactive); with NCI-H226, 27.9 µM (inactive); with HCT-15 it was 38.4 µM. Also, the GI50 in the test with LOX IMVI is 19 µM (inactive); in the test on MDA-N, 76.7 µM (inactive); in the test with ACHN, 33.3 µM (inactive); with OVCAR-3, 34.4 µM (inactive); in the test on SK-MEL-5, 5.37 µM (inactive); in the test on BT-549, 43.4 µM (inactive). In the test with A549, the GI50 is 18.4 µM (inactive).

Turning to `Cc1ccc(S(=O)(=O)NC(=O)NCCC(=O)O)cc1`, the GI50 with SNB-75, in the test on TK-10, in the test with KM12, in the test on HOP-62, with Malme-3M and in the test with UACC-257 was > 100 µM (inactive) each time. Besides, the GI50 was > 100 µM (inactive) in the test with SNB-19; > 100 µM (inactive) in the test with 786-0; > 100 µM (inactive) in the test on PC-3; > 100 µM (inactive) with OVCAR-4; 21.4 µM with HCT-15; > 100 µM (inactive) with LOX IMVI. The GI50 in the test with MDA-N is > 100 µM (inactive); with ACHN, > 100 µM (inactive); in the test on SK-MEL-5, > 100 µM (inactive); in the test with BT-549, 25.8 µM (inactive); in the test with A549 it was > 100 µM (inactive).

On to `COc1cc(-c2c(C(C)=O)c(-c3ccccc3)n(C3OC(COC(C)=O)C(OC(C)=O)C(OC(C)=O)C3OC(C)=O)c(=S)c2C#N)ccc1O` (stereo not given), for which the GI50 in the test with KM12 is 71.6 µM (inactive) and 89.5 µM (inactive); in the test with HOP-62 it was > 100 µM (inactive); with A498 it was > 100 µM (inactive); in the test on SNB-19, > 100 µM (inactive); in the test with 786-0, > 100 µM (inactive); in the test with PC-3, 46.8 µM (inactive) and 65.6 µM (inactive). Further, the GI50 with OVCAR-4 was > 100 µM (inactive); with HCT-15, > 100 µM; in the test with LOX IMVI it was > 100 µM (inactive) and 66.5 µM (inactive); in the test with MDA-N, 33 µM (inactive) and 49.8 µM (inactive); in the test on ACHN it was 55.3 µM (inactive); with SK-MEL-5 it was 37.2 µM (inactive) and 72.4 µM (inactive). Moreover, the GI50 is 33.1 µM (inactive) in the test on BT-549; > 100 µM (inactive) and 88.7 µM (inactive) in the test on A549.

As to `COc1cc(C2C(Cl)C(=O)N2c2c(C)n(C)n(-c3ccccc3)c2=O)ccc1O` (stereo not given), the GI50 was 24.7 µM (inactive) in the test on TK-10; 17.7 µM (inactive) with KM12; 23.7 µM (inactive) with HOP-62; 28.3 µM (inactive) in the test on Malme-3M; 16.4 µM (inactive) with UACC-257; 11.9 µM (inactive) in the test with 786-0. Further, the GI50 is 28.8 µM (inactive) in the test with PC-3; 16.5 µM (inactive) in the test with OVCAR-4; 22.3 µM (inactive) with NCI-H226; 16.5 µM (inactive) in the test with LOX IMVI; 15.6 µM (inactive) with MDA-N; 20.1 µM (inactive) with ACHN. Moreover, the GI50 is 28.2 µM (inactive) with OVCAR-3, 23.2 µM (inactive) in the test on SK-MEL-5, 20.1 µM (inactive) in the test on BT-549 and 26.2 µM (inactive) with A549.

With `O=[N+]([O-])c1ccc2sc(/C=N/c3cnccn3)cc2c1`, the GI50 is 0.861 µM (active) in the test on SNB-75; 30.3 µM (inactive) with TK-10; 57.5 µM (inactive) in the test with KM12; 29.1 µM (inactive) in the test with HOP-62; 27.4 µM (inactive) with A498; 37 µM (inactive) in the test on Malme-3M. The GI50 is 27.8 µM (inactive) in the test on UACC-257; 65 µM (inactive) with SNB-19; 33.5 µM (inactive) in the test with 786-0; 31 µM (inactive) with PC-3; 34.4 µM in the test with HCT-15; 22.8 µM (inactive) in the test with LOX IMVI. The GI50 was 24.1 µM (inactive) with MDA-N; 30.9 µM (inactive) in the test on ACHN; 23.7 µM (inactive) with OVCAR-3; 45.8 µM (inactive) in the test with SK-MEL-5; 85.7 µM (inactive) in the test with BT-549; 64.9 µM (inactive) in the test with A549.

On to `COC(=O)[C@@H]1Cc2ccc(OC)c(c2)OCCC(=O)N1`, for which the GI50 with SNB-75, in the test with TK-10, in the test on KM12, in the test on HOP-62, with Malme-3M and with UACC-257 was > 100 µM (inactive) each time. Also, the GI50 in the test on SNB-19 was > 100 µM (inactive); with 786-0, > 100 µM (inactive); in the test with PC-3, > 100 µM (inactive); in the test on OVCAR-4, > 100 µM (inactive); with NCI-H226, > 100 µM (inactive); with HCT-15, > 100 µM. Besides, the GI50 in the test with MDA-N, in the test on ACHN, in the test with OVCAR-3, in the test on SK-MEL-5, with BT-549 and in the test on A549 was > 100 µM (inactive) in each case.
